Experimental data: ChEMBL document CHEMBL1151757, “Synthesis, radiosynthesis, and biological evaluation of fluorine-18-labeled 2beta-carbo(fluoroalkoxy)-3beta-(3'-((Z)-2-haloethenyl)phenyl)nortropanes: candidate radioligands for in vivo imaging of the serotonin transporter with positron emission tomography” (J Med Chem, 2008)

System: Putamen
Test: Drug uptake in anesthetized cynomolgus monkey brain putamen after 205 mins postinjection
Assay type: ADME, organism-based, Macaca fascicularis
Conditions: in vivo

Row | SMILES | Drug uptake
1 | O=C(OCC[18F])C1C2CCC(CC1c1cccc(/C=C\Br)c1)N2 (centres undefined) | 3.42

System: Medulla
Test: Drug uptake in anesthetized cynomolgus monkey brain medulla after 35 mins postinjection
Assay type: ADME, organism-based, Macaca fascicularis
Conditions: in vivo

Row | SMILES | Drug uptake
2 | O=C(OCC[18F])C1C2CCC(CC1c1cccc(/C=C\Br)c1)N2 (centres undefined) | 4.97

System: not listed separately
Test: Drug uptake in anesthetized cynomolgus monkey brain frontal lobe after 175 mins postinjection
Assay type: ADME, organism-based, Macaca fascicularis
Conditions: in vivo

Row | SMILES | Drug uptake
3 | O=C(OCC[18F])C1C2CCC(CC1c1cccc(/C=C\Br)c1)N2 (centres undefined) | 2.19

System: Thalamus
Test: Drug uptake in anesthetized cynomolgus monkey brain thalamus after 12.5 mins postinjection
Assay type: ADME, organism-based, Macaca fascicularis
Set-up: unit not given here
Conditions: in vivo

Row | SMILES | Drug uptake
4 | O=C(OCC[18F])C1C2CCC(CC1c1cccc(/C=C\Br)c1)N2 (centres undefined) | 3

System: Putamen
Test: Drug uptake in anesthetized cynomolgus monkey brain putamen after 6.5 mins postinjection
Assay type: ADME, organism-based, Macaca fascicularis
Set-up: unit not given here
Conditions: in vivo

Row | SMILES | Drug uptake
5 | O=C(OCC[18F])C1C2CCC(CC1c1cccc(/C=C\Br)c1)N2 (centres undefined) | 3.01

System: Midbrain
Test: Drug uptake in anesthetized cynomolgus monkey brain midbrain after 125 mins postinjection
Assay type: ADME, organism-based, Macaca fascicularis
Set-up: unit not given here
Conditions: in vivo

Row | SMILES | Drug uptake
6 | O=C(OCC[18F])C1C2CCC(CC1c1cccc(/C=C\Br)c1)N2 (centres undefined) | 4.73

System: Pons
Test: Drug uptake in anesthetized cynomolgus monkey brain pons after 195 mins postinjection
Assay type: ADME, organism-based, Macaca fascicularis
Conditions: in vivo, 3.25 h

Row | SMILES | Drug uptake
7 | O=C(OCC[18F])C1C2CCC(CC1c1cccc(/C=C\Br)c1)N2 (centres undefined) | 3.63

System: Caudate
Test: Drug uptake in anesthetized cynomolgus monkey brain caudate after 185 mins postinjection
Assay type: ADME, organism-based, Macaca fascicularis, Caudate nucleus
Conditions: in vivo

Row | SMILES | Drug uptake
8 | O=C(OCC[18F])C1C2CCC(CC1c1cccc(/C=C\Br)c1)N2 (centres undefined) | 3.28

System: Medulla
Test: Drug uptake in anesthetized cynomolgus monkey brain medulla after 75 mins postinjection
Assay type: ADME, organism-based, Macaca fascicularis
Conditions: in vivo, 1.25 h

Row | SMILES | Drug uptake
9 | O=C(OCC[18F])C1C2CCC(CC1c1cccc(/C=C\Br)c1)N2 (centres undefined) | 4.73

System: not listed separately
Test: Ratio of drug uptake in pons to cerebellum in anesthetized cynomolgus monkey after 95 mins postinjection
Assay type: ADME, organism-based, Macaca fascicularis
Conditions: in vivo

Row | SMILES | Ratio
10 | O=C(OCC[18F])C1C2CCC(CC1c1cccc(/C=C\Br)c1)N2 (centres undefined) | 1.4

System: not listed separately
Test: Ratio of drug uptake in putamen to cerebellum in anesthetized cynomolgus monkey after 35 mins postinjection
Assay type: ADME, organism-based, Macaca fascicularis
Conditions: in vivo

Row | SMILES | Ratio
11 | O=C(OCC[18F])C1C2CCC(CC1c1cccc(/C=C\Br)c1)N2 (centres undefined) | 1.3

System: not listed separately
Test: Drug uptake in anesthetized cynomolgus monkey brain occipital lobe after 22.5 mins postinjection
Assay type: ADME, organism-based, Macaca fascicularis
Conditions: in vivo, 0.375 h

Row | SMILES | Drug uptake
12 | O=C(OCC[18F])C1C2CCC(CC1c1cccc(/C=C\Br)c1)N2 (centres undefined) | 3.14

System: Midbrain
Test: Drug uptake in anesthetized cynomolgus monkey brain midbrain after 9.5 mins postinjection
Assay type: ADME, organism-based, Macaca fascicularis
Set-up: unit not given here
Conditions: in vivo

Row | SMILES | Drug uptake
13 | O=C(OCC[18F])C1C2CCC(CC1c1cccc(/C=C\Br)c1)N2 (centres undefined) | 3.41

System: not listed separately
Test: Ratio of drug uptake in pons to cerebellum in anesthetized cynomolgus monkey after 1.5 mins postinjection
Assay type: ADME, organism-based, Macaca fascicularis
Conditions: in vivo, 0.025 h

Row | SMILES | Ratio
14 | O=C(OCC[18F])C1C2CCC(CC1c1cccc(/C=C\Br)c1)N2 (centres undefined) | 1.6

System: not listed separately
Test: Drug uptake in anesthetized cynomolgus monkey brain frontal lobe after 85 mins postinjection
Assay type: ADME, organism-based, Macaca fascicularis
Conditions: in vivo

Row | SMILES | Drug uptake
15 | O=C(OCC[18F])C1C2CCC(CC1c1cccc(/C=C\Br)c1)N2 (centres undefined) | 2.88

System: not listed separately
Test: Ratio of drug uptake in occipital lobe to cerebellum in anesthetized cynomolgus monkey after 18.5 mins postinjection
Assay type: ADME, organism-based, Macaca fascicularis
Conditions: in vivo

Row | SMILES | Ratio
16 | O=C(OCC[18F])C1C2CCC(CC1c1cccc(/C=C\Br)c1)N2 (centres undefined) | 0.8

System: not listed separately
Test: Ratio of drug uptake in pons to cerebellum in anesthetized cynomolgus monkey after 215 mins postinjection
Assay type: ADME, organism-based, Macaca fascicularis
Conditions: in vivo

Row | SMILES | Ratio
17 | O=C(OCC[18F])C1C2CCC(CC1c1cccc(/C=C\Br)c1)N2 (centres undefined) | 1.8

System: Medulla
Test: Drug uptake in anesthetized cynomolgus monkey brain medulla after 215 mins postinjection
Assay type: ADME, organism-based, Macaca fascicularis
Conditions: in vivo

Row | SMILES | Drug uptake
18 | O=C(OCC[18F])C1C2CCC(CC1c1cccc(/C=C\Br)c1)N2 (centres undefined) | 3.04

System: not listed separately
Test: Ratio of drug uptake in midbrain to cerebellum in anesthetized cynomolgus monkey after 18.5 mins postinjection
Assay type: ADME, organism-based, Macaca fascicularis
Conditions: in vivo

Row | SMILES | Ratio
19 | O=C(OCC[18F])C1C2CCC(CC1c1cccc(/C=C\Br)c1)N2 (centres undefined) | 1.2

System: Thalamus
Test: Drug uptake in anesthetized cynomolgus monkey brain thalamus after 215 mins postinjection
Assay type: ADME, organism-based, Macaca fascicularis
Set-up: unit not given here
Conditions: in vivo

Row | SMILES | Drug uptake
20 | O=C(OCC[18F])C1C2CCC(CC1c1cccc(/C=C\Br)c1)N2 (centres undefined) | 2.92

System: not listed separately
Test: Ratio of drug uptake in frontal lobe to cerebellum in anesthetized cynomolgus monkey after 75 mins postinjection
Assay type: ADME, organism-based, Macaca fascicularis
Conditions: in vivo, 1.25 h

Row | SMILES | Ratio
21 | O=C(OCC[18F])C1C2CCC(CC1c1cccc(/C=C\Br)c1)N2 (centres undefined) | 0.9

System: Putamen
Test: Drug uptake in anesthetized cynomolgus monkey brain putamen after 4.5 mins postinjection
Assay type: ADME, organism-based, Macaca fascicularis
Set-up: unit not given here
Conditions: in vivo, 0.075 h

Row | SMILES | Drug uptake
22 | O=C(OCC[18F])C1C2CCC(CC1c1cccc(/C=C\Br)c1)N2 (centres undefined) | 1.72

System: not listed separately
Test: Drug uptake in anesthetized cynomolgus monkey brain frontal lobe after 12.5 mins postinjection
Assay type: ADME, organism-based, Macaca fascicularis
Conditions: in vivo

Row | SMILES | Drug uptake
23 | O=C(OCC[18F])C1C2CCC(CC1c1cccc(/C=C\Br)c1)N2 (centres undefined) | 2.27

System: Medulla
Test: Drug uptake in anesthetized cynomolgus monkey brain medulla after 0.5 mins postinjection
Assay type: ADME, organism-based, Macaca fascicularis
Conditions: in vivo

Row | SMILES | Drug uptake
24 | O=C(OCC[18F])C1C2CCC(CC1c1cccc(/C=C\Br)c1)N2 (centres undefined) | 0

System: Midbrain
Test: Drug uptake in anesthetized cynomolgus monkey brain midbrain after 195 mins postinjection
Assay type: ADME, organism-based, Macaca fascicularis
Conditions: in vivo, 3.25 h

Row | SMILES | Drug uptake
25 | O=C(OCC[18F])C1C2CCC(CC1c1cccc(/C=C\Br)c1)N2 (centres undefined) | 3.91

System: Medulla
Test: Drug uptake in anesthetized cynomolgus monkey brain medulla after 55 mins postinjection
Assay type: ADME, organism-based, Macaca fascicularis
Conditions: in vivo

Row | SMILES | Drug uptake
26 | O=C(OCC[18F])C1C2CCC(CC1c1cccc(/C=C\Br)c1)N2 (centres undefined) | 4.82

System: not listed separately
Test: Drug uptake in anesthetized cynomolgus monkey brain occipital lobe after 195 mins postinjection
Assay type: ADME, organism-based, Macaca fascicularis
Conditions: in vivo, 3.25 h

Row | SMILES | Drug uptake
27 | O=C(OCC[18F])C1C2CCC(CC1c1cccc(/C=C\Br)c1)N2 (centres undefined) | 2.02

System: not listed separately
Test: Drug uptake in anesthetized cynomolgus monkey brain cerebellum after 9.5 mins postinjection
Assay type: ADME, organism-based, Macaca fascicularis
Conditions: in vivo

Row | SMILES | Drug uptake
28 | O=C(OCC[18F])C1C2CCC(CC1c1cccc(/C=C\Br)c1)N2 (centres undefined) | 3.17

System: Putamen
Test: Drug uptake in anesthetized cynomolgus monkey brain putamen after 115 mins postinjection
Assay type: ADME, organism-based, Macaca fascicularis
Set-up: unit not given here
Conditions: in vivo

Row | SMILES | Drug uptake
29 | O=C(OCC[18F])C1C2CCC(CC1c1cccc(/C=C\Br)c1)N2 (centres undefined) | 4.68

System: not listed separately
Test: Drug uptake in anesthetized cynomolgus monkey brain frontal lobe after 9.5 mins postinjection
Assay type: ADME, organism-based, Macaca fascicularis
Conditions: in vivo

Row | SMILES | Drug uptake
30 | O=C(OCC[18F])C1C2CCC(CC1c1cccc(/C=C\Br)c1)N2 (centres undefined) | 2.06

System: not listed separately
Test: Drug uptake in anesthetized cynomolgus monkey brain frontal lobe after 235 mins postinjection
Assay type: ADME, organism-based, Macaca fascicularis
Conditions: in vivo

Row | SMILES | Drug uptake
31 | O=C(OCC[18F])C1C2CCC(CC1c1cccc(/C=C\Br)c1)N2 (centres undefined) | 1.87

System: not listed separately
Test: Drug uptake in anesthetized cynomolgus monkey brain occipital lobe after 75 mins postinjection
Assay type: ADME, organism-based, Macaca fascicularis
Conditions: in vivo, 1.25 h

Row | SMILES | Drug uptake
32 | O=C(OCC[18F])C1C2CCC(CC1c1cccc(/C=C\Br)c1)N2 (centres undefined) | 3.49

System: Midbrain
Test: Drug uptake in anesthetized cynomolgus monkey brain midbrain after 225 mins postinjection
Assay type: ADME, organism-based, Macaca fascicularis
Conditions: in vivo, 3.75 h

Row | SMILES | Drug uptake
33 | O=C(OCC[18F])C1C2CCC(CC1c1cccc(/C=C\Br)c1)N2 (centres undefined) | 3.74

System: not listed separately
Test: Drug uptake in anesthetized cynomolgus monkey brain cerebellum after 18.5 mins postinjection
Assay type: ADME, organism-based, Macaca fascicularis
Conditions: in vivo

Row | SMILES | Drug uptake
34 | O=C(OCC[18F])C1C2CCC(CC1c1cccc(/C=C\Br)c1)N2 (centres undefined) | 3.59
